Test results from patent publication US8933233B2, “1,3,4-oxadiazole and 1,3,4-thiadiazole β-lactamase inhibitors” (priority 2012, dated 2015).
Where a name gives a salt, the structure may show the parent alone.

Key:
[1] = system: bacterial strains that express KPC β-lactamases; assay: Synergy MIC / standard BLI potentiation MIC assay, strains expressing KPC β-lactamases; format: cell-based, isogenic E. coli and clinical isolates; conditions: more active for at least one KPC strain and/or better spectrum; comparator Avibactam
Method: (§1) Unless otherwise indicated, the activity of the BLI compounds can be described by the MIC value obtained from a Synergy MIC assay or a BLI potentiation assay (e.g as described herein), both of which are run in the presence of a β-lactam.
(§2) The experimental protocol was performed according to Clinical and Laboratory Standards Institute (CLSI) guidelines with modifications as described below (CLSI guidelines can be derived from the CLSI document M07-A9 published in January 2012: “Methods for Dilution Antimicrobial Susceptibility Tests for Bacteria That Grow Aerobically; Approved Standard-Ninth Edition”).
(§3) To prepare for MIC testing, frozen glycerol stocks of clinical isolates (Klebsiella pneumoniae, Eschericia coli, Enterobacter spp, Citrobacter spp, or Pseudomonas aeruginosa) were used to streak for isolated colonies on rich, non-selective, tryptic soy agar containing 5% sheep's blood (TSAB). Frozen glycerol stocks of laboratory engineered, isogenic E. coli strains, which contain cloned β-lactamase expressing plasmids were used to streak for isolated colonies on rich, selective LB agar supplemented with 25 μg/mL tetracycline to maintain the plasmid. All strains were incubated at 37° C. for 18-24 hrs.
(§4) On the day of testing, primary cultures were started by scraping off 5-10 colonies from the TSAB plates containing clinical strains or the tetracycline supplemented LB plates containing engineered strains. The clinical strain material was suspended in ˜5 mL of cation adjusted Mueller Hinton Broth (CAMHB) in 14 mL culture tubes. The engineered strain material was suspended in CAMHB (supplemented with 25 μg/mL tetracycline) in 14 mL culture tubes. All strains were incubated at 37° C. with aeration (200 rpm) for ˜2 hrs until the optical density at 600 nm (OD600) was ≧0.1.
(§5) The two compound components of the assay were each diluted in CAMHB and added to the 96-well broth microdilution assay plates. 50 μL of the β-lactam was added to each well of the assay plate in 2-fold dilutions with final concentrations ranging from 128 to 0.13 μg/mL. 25 μL of the BLI compound was added to all wells in the broth microdilution plates at a final concentration of 4 μg/mL. Inoculum cultures were prepared by standardizing the primary cultures to OD600=0.1 and then adding 20 μL of the adjusted primary culture per 1 mL CAMHB for clinical strains or CAMHB (supplemented with tetracycline at 100 μg/mL) for engineered strains, so that the final inoculum density was ˜10^5 colony forming units per milliliter. Diluted inoculum cultures were used to inoculate 25 μL per well in 96-well broth microdilution assay plates. The final volume of each well was 100 μL and contained a β-lactam at different concentrations, a BLIcompound at 4 μg/mL concentration, the bacterial culture at an OD600 of approximately 0.001 and when necessary tetracycline at 25 μg/mL.
(§6) Plates were incubated for 18-20 hours at 37° C. with aeration (200 rpm). Following incubation, growth was confirmed visually placing plates over a viewing apparatus (stand with a mirror underneath) and then OD600 was measured using a SpectraMax 340PC384 plate reader (Molecular Devices, Sunnyvale, Calif.). Growth was defined as turbidity that could be detected with the naked eye or achieving minimum OD600 of 0.1. MIC values were defined as the lowest concentration producing no visible turbidity.
(§7) The synergy MIC (sMIC) assay determines the concentration of the BLI required to potentiate the activity of a fixed concentration of a β-lactam antibiotic against β-lactamase producing bacterial strains. The experimental protocol was performed according to Clinical and Laboratory Standards Institute (CLSI) guidelines with modifications as described below (CLSI guidelines can be derived from the CLSI document M07-A9 published in January 2012: “Methods for Dilution Antimicrobial Susceptibility Tests for Bacteria That Grow Aerobically; Approved Standard-Ninth Edition”). […]

[2] = system: bacterial strains that express the class D cephalosporinase OXA-15; assay: Synergy MIC / standard BLI potentiation MIC assay, strains expressing OXA-15; format: cell-based, E. coli; conditions: in presence of a β-lactam; comparator Avibactam (CCC)
Method: as §1, §2, §3, §4, §5, §6, §7

`NCCCc1nnc([C@@H]2CC[C@@H]3CN2C(=O)N3OS(=O)(=O)O)o1` [Compound 720, (2S,5R)-2-(5-(3-aminopropyl)-1,3,4-oxadiazol-2-yl)-7-oxo-1,6-diazabicyclo[3.2.1]octan-6-yl hydrogen sulfate] was tested, and the “activity and/or spectrum of activity against bacterial strains that express KPC β-lactamases, compared with Avibactam” value [1] was “more active than Avibactam” and the “activity against bacterial strains that express OXA-15, compared with Avibactam” value [2] was “more active than Avibactam”.

`N=C(N)NCc1nnc([C@@H]2CC[C@@H]3CN2C(=O)N3OS(=O)(=O)O)s1` [Compound 721, (2S,5R)-2-(5-(guanidinomethyl)-1,3,4-thiadiazol-2-yl)-7-oxo-1,6-diazabicyclo[3.2.1]octan-6-yl hydrogen sulfate] was tested, and the “activity and/or spectrum of activity against bacterial strains that express KPC β-lactamases, compared with Avibactam” value [1] was “more active than Avibactam” and the “activity against bacterial strains that express OXA-15, compared with Avibactam” value [2] was “more active than Avibactam”.

For `CNCCc1nnc([C@@H]2CC[C@@H]3CN2C(=O)N3OS(=O)(=O)O)o1` [Compound 722, (2S,5R)-2-(5-(2-(methylamino)ethyl)-1,3,4-oxadiazol-2-yl)-7-oxo-1,6-diazabicyclo[3.2.1]octan-6-yl hydrogen sulfate], the “activity and/or spectrum of activity against bacterial strains that express KPC β-lactamases, compared with Avibactam” value [1] was “more active than Avibactam” and the “activity against bacterial strains that express OXA-15, compared with Avibactam” value [2] was “more active than Avibactam”.

`N=C(N)NCC1(c2nnc([C@@H]3CC[C@@H]4CN3C(=O)N4OS(=O)(=O)O)o2)CC1` [Compound 723, (2S,5R)-2-(5-(1-(guanidinomethyl)cyclopropyl)-1,3,4-oxadiazol-2-yl)-7-oxo-1,6-diazabicyclo[3.2.1]octan-6-yl hydrogen sulfate] was tested, and the “activity and/or spectrum of activity against bacterial strains that express KPC β-lactamases, compared with Avibactam” value [1] was “more active than Avibactam” and the “activity against bacterial strains that express OXA-15, compared with Avibactam” value [2] was “more active than Avibactam”.

In the case of `NC1(Cc2nnc([C@@H]3CC[C@@H]4CN3C(=O)N4OS(=O)(=O)O)o2)CC1` [Compound 724, (2S,5R)-2-(5-((1-aminocyclopropyl)methyl)-1,3,4-oxadiazol-2-yl)-7-oxo-1,6-diazabicyclo[3.2.1]octan-6-yl hydrogen sulfate], the “activity and/or spectrum of activity against bacterial strains that express KPC β-lactamases, compared with Avibactam” value [1] was “more active than Avibactam” and the “activity against bacterial strains that express OXA-15, compared with Avibactam” value [2] was “more active than Avibactam”.

In the case of `O=C1N2C[C@@H](CC[C@H]2c2nnc(CNC3CNC3)o2)N1OS(=O)(=O)O` [Compound 726, (2S,5R)-2-(5-((azetidin-3-ylamino)methyl)-1,3,4-oxadiazol-2-yl)-7-oxo-1,6-diazabicyclo[3.2.1]octan-6-yl hydrogen sulfate], the “activity and/or spectrum of activity against bacterial strains that express KPC β-lactamases, compared with Avibactam” value [1] was “more active than Avibactam” and the “activity against bacterial strains that express OXA-15, compared with Avibactam” value [2] was “more active than Avibactam”.

`N[C@H]1C[C@H](c2nnc([C@@H]3CC[C@@H]4CN3C(=O)N4OS(=O)(=O)O)o2)C1` [Compound 727, (2S,5R)-2-(5-((1r,3S)-3-aminocyclobutyl)-1,3,4-oxadiazol-2-yl)-7-oxo-1,6-diazabicyclo[3.2.1]octan-6-yl hydrogen sulfate] was tested, and the “activity and/or spectrum of activity against bacterial strains that express KPC β-lactamases, compared with Avibactam” value [1] was “more active than Avibactam” and the “activity against bacterial strains that express OXA-15, compared with Avibactam” value [2] was “more active than Avibactam”.

`N[C@H]1C[C@@H](Cc2nnc([C@@H]3CC[C@@H]4CN3C(=O)N4OS(=O)(=O)O)o2)C1` [Compound 728, (2S,5R)-2-(5-(((1s,3R)-3-aminocyclobutyl)methyl)-1,3,4-oxadiazol-2-yl)-7-oxo-1,6-diazabicyclo[3.2.1]octan-6-yl hydrogen sulfate] was tested, and the “activity and/or spectrum of activity against bacterial strains that express KPC β-lactamases, compared with Avibactam” value [1] was “more active than Avibactam” and the “activity against bacterial strains that express OXA-15, compared with Avibactam” value [2] was “more active than Avibactam”.

In the case of `N[C@@H]1CC[C@H](c2nnc([C@@H]3CC[C@@H]4CN3C(=O)N4OS(=O)(=O)O)o2)C1` [Compound 729, (2S,5R)-2-(5-((1S,3R)-3-aminocyclopentyl)-1,3,4-oxadiazol-2-yl)-7-oxo-1,6-diazabicyclo[3.2.1]octan-6-yl hydrogen sulfate], the “activity and/or spectrum of activity against bacterial strains that express KPC β-lactamases, compared with Avibactam” value [1] was “more active than Avibactam” and the “activity against bacterial strains that express OXA-15, compared with Avibactam” value [2] was “more active than Avibactam”.

`N=C(N)NCC(O)Cc1nnc([C@@H]2CC[C@@H]3CN2C(=O)N3OS(=O)(=O)O)o1` (stereo partly drawn) [Compound 730, (2S,5R)-2-(5-(3-guanidino-2-hydroxypropyl)-1,3,4-oxadiazol-2-yl)-7-oxo-1,6-diazabicyclo[3.2.1]octan-6-yl hydrogen sulfate] was tested, and the “activity and/or spectrum of activity against bacterial strains that express KPC β-lactamases, compared with Avibactam” value [1] was “more active than Avibactam” and the “activity against bacterial strains that express OXA-15, compared with Avibactam” value [2] was “more active than Avibactam”.

For `N=C(N)NC[C@@H](O)c1nnc([C@@H]2CC[C@@H]3CN2C(=O)N3OS(=O)(=O)O)o1` [Compound 731, (2S,5R)-2-(5-((R)-2-guanidino-1-hydroxyethyl)-1,3,4-oxadiazol-2-yl)-7-oxo-1,6-diazabicyclo[3.2.1]octan-6-yl hydrogen sulfate], the “activity and/or spectrum of activity against bacterial strains that express KPC β-lactamases, compared with Avibactam” value [1] was “more active than Avibactam” and the “activity against bacterial strains that express OXA-15, compared with Avibactam” value [2] was “more active than Avibactam”.

`N=C(N)NC[C@H](O)c1nnc([C@@H]2CC[C@@H]3CN2C(=O)N3OS(=O)(=O)O)o1` [Compound 732, (2S,5R)-2-(5-((S)-2-guanidino-1-hydroxyethyl)-1,3,4-oxadiazol-2-yl)-7-oxo-1,6-diazabicyclo[3.2.1]octan-6-yl hydrogen sulfate] was tested, and the “activity and/or spectrum of activity against bacterial strains that express KPC β-lactamases, compared with Avibactam” value [1] was “more active than Avibactam” and the “activity against bacterial strains that express OXA-15, compared with Avibactam” value [2] was “more active than Avibactam”.

With `CNCCCc1nnc([C@@H]2CC[C@@H]3CN2C(=O)N3OS(=O)(=O)O)o1` [Compound 734, 2S,5R)-2-(5-(3-(methylamino)propyl)-1,3,4-oxadiazol-2-yl)-7-oxo-1,6-diazabicyclo[3.2.1]octan-6-yl hydrogen sulfate] the “activity and/or spectrum of activity against bacterial strains that express KPC β-lactamases, compared with Avibactam” value [1] was “more active than Avibactam” and the “activity against bacterial strains that express OXA-15, compared with Avibactam” value [2] was “more active than Avibactam”.

`NCCCCc1nnc([C@@H]2CC[C@@H]3CN2C(=O)N3OS(=O)(=O)O)o1` [Compound 735, (2S,5R)-2-(5-(4-aminobutyl)-1,3,4-oxadiazol-2-yl)-7-oxo-1,6-diazabicyclo[3.2.1]octan-6-yl hydrogen sulfate] was tested, and the “activity and/or spectrum of activity against bacterial strains that express KPC β-lactamases, compared with Avibactam” value [1] was “more active than Avibactam” and the “activity against bacterial strains that express OXA-15, compared with Avibactam” value [2] was “more active than Avibactam”.

In the case of `O=C1N2C[C@@H](CC[C@H]2c2nnc(CCNCCO)o2)N1OS(=O)(=O)O` [Compound 736, (2S,5R)-2-(5-(2-((2-hydroxyethyl)amino)ethyl)-1,3,4-oxadiazol-2-yl)-7-oxo-1,6-diazabicyclo[3.2.1]octan-6-yl hydrogen sulfate], the “activity and/or spectrum of activity against bacterial strains that express KPC β-lactamases, compared with Avibactam” value [1] was “more active than Avibactam” and the “activity against bacterial strains that express OXA-15, compared with Avibactam” value [2] was “more active than Avibactam”.

For `CC(C)(N)Cc1nnc([C@@H]2CC[C@@H]3CN2C(=O)N3OS(=O)(=O)O)o1` [Compound 737, (2S,5R)-2-(5-(2-amino-2-methylpropyl)-1,3,4-oxadiazol-2-yl)-7-oxo-1,6-diazabicyclo[3.2.1]octan-6-yl hydrogen sulfate], the “activity and/or spectrum of activity against bacterial strains that express KPC β-lactamases, compared with Avibactam” value [1] was “more active than Avibactam” and the “activity against bacterial strains that express OXA-15, compared with Avibactam” value [2] was “more active than Avibactam”.
